Data reported in US11028090B2 (Dong Wha Pharm. Co., Ltd., priority 2017, dated 2021).
pIC50: −log10 of the molar value. Where a name gives a salt, the structure may show the parent alone. Read-outs that look alike come from different tables or passages of the source.

How the values were obtained:
[1] = tested on: acute myelogenous leukemia cells (MV-4-11 cells); assay: Cytotoxicity to acute myelogenous leukemia cells (MV-4-11 cells), CCK-8; details: Homo sapiens, MV4-11, 72 h
[2] = molecular target: BRD4 (BD1+BD2) bromodomain (Homo sapiens (Human), UniProt O60885); assay: BRD4 binding inhibition (AlphaScreen, GST-BRD4 vs tetraacetylated histone H4 peptide)
In short: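 AlphaScreen read after 30 min dark incubation at room temperature with glutathione acceptor/streptavidin donor beads (10 μg/ml each). The beads were added to compound plus 100 nM biotin-H4 (K5,8,12,16-acetyl) peptide and 100 nM GST-BRD4 BD1+BD2 in pH 7.4 HEPES/Tween/BSA/DTT buffer.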

[3] = read-out: MV-4-11 Cytotoxicity IC50
[4] = GST-BRD4 (BD1+BD2) / biotinylated acetyl-histone H4 (Lys5,8,12,16) peptide, read-out: IC50, BRD4 binding inhibition
[5] = GST-BRD4 (BD1+BD2) vs biotinylated acetyl-histone H4 peptide, AlphaScreen, read-out: BRD4 IC50
[6] = read-out: IC50, cytotoxicity against acute myelogenous leukemia cells

| SMILES | pIC50 [2, 4] | pIC50 [2, 5] | pIC50 [1, 3] | pIC50 [1, 6] |
| --- | --- | --- | --- | --- |
| Cc1nnc2c(NCCCCNC(=O)OCC(C)C)nc3cc(-n4ccnc4)ccc3n12 [Example 493] | ≥ 8.00 | 8.30 | 7.32 | ≥ 6.70 |
| Cc1nnc2c(NCCCCNC(=O)OC(C)C)nc3cc(-n4ccnc4)ccc3n12 [Example 494, [4-(7-imidazole-1-yl-1-methyl-[1,2,4]triazolo[4,3-a]quinoxaline-4-ylamino)-butyl]-carbamic acid isopropylester] | ≥ 7.30 | 7.85 | 6.96 | ≥ 6.70 |
| Cc1nnc2c(NCCCCNC(=O)OC(C)(C)C)nc3cc(N4CCOCC4)ccc3n12 [Example 497, [4-(1-methyl-7-morpholine-4-yl-[1,2,4]triazolo[4,3-a]quinoxaline-4-ylamino)-butyl]-carbamic acid-tert-butylester] | ≥ 7.30 | 7.42 | 6.14 |  |
| Cc1nnc2c(NCCCCNC(=O)CC(C)C)nc3cc(N4CCOCC4)ccc3n12 [Example 499, 3-methyl-N-[4-(1-methyl-7-morpholine-4-yl-[1,2,4]triazolo[4,3-a]quinoxaline-4-ylamino)-butyl]-butyramide] | ≥ 8.00 | 8.00 | 6.85 | ≥ 6.70 |
| Cc1nnc2c(NCCCCNC(=O)[C@@H](F)C(C)C)nc3cc(N4CCOCC4)ccc3n12 [Example 500, 2-(S)-fluoro-3-methyl-N-[4-(1-methyl-7-morpholine-4-yl-[1,2,4]triazolo[4,3-a]quinoxaline-4-ylamino)-butyl]-butyramide] | ≥ 7.30 | 7.40 | 7.01 | ≥ 6.70 |
| CCC(C)CC(=O)NCCCCNc1nc2cc(N3CCOCC3)ccc2n2c(C)nnc12 (centres unmarked) [Example 501, 3-methyl-pentanoic acid-[4-(1-methyl-7-morpholine-4-yl-[1,2,4]triazolo[4,3-a]quinoxaline-4-ylamino)-butyl]-amide] | ≥ 8.00 | 8.05 | 7.22 | ≥ 6.70 |
| Cc1nnc2c(NCCCCNC(=O)[C@@H](NC(=O)OC(C)(C)C)C(C)C)nc3cc(N4CCOCC4)ccc3n12 [Example 502, (S)-{2-methyl-1-[4-(1-methyl-7-morpholine-4-yl-[1,2,4]triazolo[4,3-a]quinoxaline-4-ylamino)-butylcarbamoyl]-propyl}-carbamic acid-tert-butylester] | ≥ 7.30 | 7.52 | 6.48 |  |
| Cc1nnc2c(NCCCCNC(=O)[C@@H](N)C(C)C)nc3cc(N4CCOCC4)ccc3n12 [Example 503, 2-(S)-amino-3-methyl-N-[4-(1-methyl-7-morpholine-4-yl-[1,2,4]triazolo[4,3-a]quinoxaline-4-ylamino)-butyl]-butyramide hydrochloride] |  | 7.20 | 6.24 |  |
| Cc1nnc2c(NCCCCNC(=O)[C@@H](NS(C)(=O)=O)C(C)C)nc3cc(N4CCOCC4)ccc3n12 [Example 505, 2-(S)-methanesulfonylamino-3-methyl-N-[4-(1-methyl-7-morphonyl-4-yl-[1,2,4]triazolo[4,3-a]quinoxaline-4-ylamino)-butyl]-butyramide] | ≥ 7.30 | 7.59 | 6.27 |  |
| Cc1nnc2c(NCCCCNC(=O)OC(C)C)nc3cc(N4CCOCC4)ccc3n12 [Example 506, [4-(1-methyl-7-morpholine-4-yl-[1,2,4]triazolo[4,3-a]quinoxaline-4-ylamino)-butyl]-carbamic acid isopropylester] | ≥ 7.30 | 7.82 | 6.47 |  |
| Cc1nnc2c(NCCCCNC(=O)OC(C)(C)C)nc3cc(N4C[C@@H](C)O[C@@H](C)C4)ccc3n12 [Example 508, {4-[7-(2,6-dimethyl-morphonyl-4-yl)-1-methyl-[1,2,4]triazolo[4,3-a]quinoxaline-4-ylamino]-butyl}-carbamic acid-tert-butylester] | ≥ 7.30 | 7.54 | 6.24 |  |
| Cc1nnc2c(NCCCCNC(=O)CC(C)C)nc3cc(N4C[C@@H](C)O[C@@H](C)C4)ccc3n12 [Example 510, N-{4-[7-(2,6-dimethyl-morpholine-4-yl)-1-methyl-[1,2,4]triazolo[4,3-a]quinoxaline-4-ylamino]-butyl}-3-methyl-butyramide] |  | 7.24 | 6.47 |  |
| Cc1nnc2c(NCCCCNC(=O)[C@H](O)C(C)C)nc3cc(N4C[C@@H](C)O[C@@H](C)C4)ccc3n12 [Example 512, N-{4-[7-(2,6-dimethyl-morpholine-4-yl)-1-methyl-[1,2,4]triazolo[4,3-a]quinoxaline-4-ylamino]-butyl}-2-(R)-hydroxy-3-methyl-butyramide] |  | 7.19 | 6.20 |  |

Further lines, with some results ahead:

| pIC50 [2, 4] | pIC50 [2, 5] | SMILES | pIC50 [1, 3] | pIC50 [1, 6] |
| --- | --- | --- | --- | --- |
| ≥ 8.00 | 8.30 | COc1cc2nc(NCCCCNC(=O)[C@@H](O)C(C)C)c3nnc(C)n3c2cc1C(F)(F)F [Example 479, 2-(S)-hydroxy-N-[4-(7-methoxy-1-methyl-8-trifluoromethyl-[1,2,4]triazolo[4,3-a]quinoxaline-4-ylamino)-butyl]-3-methyl-butyramide] | 6.62 |  |
| ≥ 8.00 | 8.05 | COc1cc2nc(NCCCCNC(=O)Cc3cccs3)c3nnc(C)n3c2cc1C(F)(F)F [Example 480, N-[4-(7-methoxy-1-methyl-8-trifluoromethyl-[1,2,4]triazolo[4,3-a]quinoxaline-4-ylamino)-butyl]-2-thiophene-2-yl-acetamide] | 7.10 | ≥ 6.70 |
| ≥ 8.00 | 8.05 | Cc1nnc2c(NCCCCNC(=O)OC(C)(C)C)nc3cc(-n4ccnc4)ccc3n12 [Example 490, [4-(7-imidazole-1-yl-1-methyl-[1,2,4]triazolo[4,3-a]quinoxaline-4-ylamino)-butyl]-carbamic acid-tert-butylester] | 6.72 | ≥ 6.70 |
| ≥ 7.30 | 7.89 | Cc1nnc2c(NCCCCNC(=O)CC(C)C)nc3cc(-n4ccnc4)ccc3n12 [Example 492, N-[4-(7-imidazole-1-yl-1-methyl-[1,2,4]triazolo[4,3-a]quinoxaline-4-ylamino)-butyl]-3-methyl-butyramide] | 7.10 | ≥ 6.70 |
| ≥ 7.30 | 7.92 | CCC(C)CC(=O)NCCCCNc1nc2cc(-n3ccnc3)ccc2n2c(C)nnc12 (centres unmarked) [Example 495, 3-methyl-pentanoic acid-[4-(7-imidazole-1-yl-1-methyl-[1,2,4]triazolo[4,3-a]quinoxaline-4-ylamino)-butyl]-amide] | 7.54 | ≥ 6.70 |
| ≥ 8.00 | 8.00 | Cc1nnc2c(NCCCCNC(=O)Cc3cccs3)nc3cc(-n4ccnc4)ccc3n12 [Example 496, N-[4-(7-imidazole-1-yl-1-methyl-[1,2,4]triazolo[4,3-a]quinoxaline-4-ylamino)-butyl]-2-thiophene-2-yl-acetamide] | 7.70 | ≥ 6.70 |
| ≥ 7.30 | 7.96 | Cc1nnc2c(NCCCCNC(=O)Cc3cccs3)nc3cc(N4CCOCC4)ccc3n12 [Example 507, N-[4-(1-methyl-7-morpholine-4-yl-[1,2,4]triazolo[4,3-a]quinoxaline-4-ylamino)-butyl]-2-thiophene-2-yl-acetamide] | 7.68 | ≥ 6.70 |
